# Like-named read-outs stand apart in the source and are kept apart here.
# What was measured:
# Format in all cases: cell-based
# [1] = tested on: Carbapenem-resistant Acinetobacter baumannii (CRAB); assay: Test Example 1: antibacterial activity test (MIC)
# Description: (§1) The test compounds were diluted in a gradient and used for an MIC assay on the test strains. The test compounds at an initial assay concentration of 32 μg/mL were diluted in a 2-fold gradient (11 concentration points in total), and two duplicate wells were set for each concentration. Additional wells without drug dosing were set as growth controls. The minimum inhibitory concentration (MIC) assay was performed with reference to the Clinical and Laboratory Standards Institute (CLSI) guidelines.
# (§2) After the frozen strains were subcultured, a single colony was picked and re-suspended in normal saline or sterile water in a tube. The bacterial suspension was vortexed and adjusted to 0.5 McF using a spectrophotometer at the wavelength of 530 nm. The bacterial solution was taken by a pipette, added to a culture medium, diluted and mixed well, and seeded to a bacterial assay plate.
# (§3) The 96-well plate was affixed with a disposable sealing film, shaken and mixed well, and visually observed using a plate reader. The minimum concentration of the compounds capable of inhibiting the growth of bacteria was defined as MIC as compared to the growth controls.
# [2] = tested on: Carbapenem-resistant Enterobacteriaceae (CRE); assay: Test Example 1: antibacterial activity test (MIC)
# Description: as §1, §2, §3
# [3] = tested on: Carbapenem-resistant Pseudomonas aeruginosa (CRPA); assay: Test Example 1: antibacterial activity test (MIC)
# Description: as §1, §2, §3
# [4] = tested on: Carbapenem-resistant Acinetobacter baumannii (CRAB, Acinetobacter baumannii); assay: Test Example 2: antibacterial activity test (MIC); details: ID-CAMHB, read-out: ID-CAMHB, MIC
# Description: (§4) 1. The test compounds were dissolved in sterile normal saline, vortexed for uniformly mixing, and diluted in a 2-fold dilution with the sterile normal saline (11 concentration points in total). The test concentration range was 32-0.031 μg/mL, and two duplicate wells were set for each concentration. Additional wells without drug dosing were set as growth controls. 2. 4 μL of the diluent was added to 196 μL of the bacterial suspension in a 96-well plate (the bacterial count in the bacterial suspension was 2-8×10^5 colony forming units/mL). 3.
# (§5) The minimum inhibitory concentration (MIC) assay was performed with reference to the Clinical and Laboratory Standards Institute (CLSI) guidelines.
# [5] = tested on: Control strain Escherichia coli ATCC 25922; assay: Test Example 2: antibacterial activity test (MIC); details: ATCC25922, ID-CAMHB, ATCC 25922, read-out: ID-CAMHB, MIC
# Description: as §4, §5
# [6] = tested on: Carbapenem-resistant Pseudomonas aeruginosa (CRPA, Pseudomonas aeruginosa); assay: Test Example 2: antibacterial activity test (MIC); details: ID-CAMHB, read-out: ID-CAMHB, MIC
# Description: as §4, §5
# [7] = tested on: Carbapenem-resistant Enterobacteriaceae (CRE, Klebsiella pneumoniae); assay: Test Example 2: antibacterial activity test (MIC); details: ID-CAMHB, read-out: ID-CAMHB, MIC
# Description: as §4, §5
# [8] = tested on: Control Strain Pseudomonas aeruginosa ATCC 27853; assay: Test Example 2: antibacterial activity test (MIC); details: ATCC27853, ID-CAMHB, ATCC 27853, read-out: ID-CAMHB, MIC
# Description: as §4, §5
# [9] = FDA-CDC AR-BANK #0036 (strB, OXA-65, OXA-24, strA, sul2)
# [10] = FDA-CDC AR-BANK #0052 (OXA-58, OXA-100, sul2)
# [11] = FDA-CDC AR-BANK #0063 (OXA-23, OXA-65, OXA-24, sul2)
# [12] = FDA-CDC AR-BANK #0070 (OXA-58, OXA-100, sul2)
# [13] = FDA-CDC AR-BANK #0101 (strB, OXA-65, OXA-24, strA, sul2)
# [14] = FDA-CDC AR-BANK #0439 (aac(6′)-Il, aadA1b, BCR1, IMP-18, OXA-50)
# [15] = FDA-CDC AR-BANK #0444 (aac(6′)-Il, dfrB5, OXA-4, tet(G), VIM-2)
# [16] = FDA-CDC AR-BANK #0457 (aadA6, VIM-2)
# [17] = FDA-CDC AR-BANK #0361 (TEM-1; SHV-12; KPC-2)
# [18] = FDA-CDC AR-BANK #0362 (TEM-1; SHV-11; KPC-2)
# [19] = FDA-CDC AR-BANK #0363 (TEM-1; SHV-12; KPC-2)
# [20] = FDA-CDC AR-BANK #0438 (aph(3′)-Ia, dfrA12, KPC-3, OmpK35, oqxA, oqxB, SHV-11)
# [21] = FDA-CDC AR-BANK #0453 (KPC-3, OmpK35, oqxA, oqxB, SHV-11, TEM-1B)
SMILES,"MIC [4, 9] [µg/mL]","MIC [4, 10] [µg/mL]","MIC [4, 11] [µg/mL]","MIC [4, 12] [µg/mL]","MIC [4, 13] [µg/mL]",MIC ([1]; CRAB strain No. 100085) [µg/mL],MIC ([1]; CRAB strain No. 100333) [µg/mL],MIC ([1]; CRAB strain No. 110440) [µg/mL],MIC ([1]; CRAB strain No. 110477) [µg/mL],MIC ([1]; CRAB strain No. 110517) [µg/mL],MIC ([2]; CRE strain No. 100109) [µg/mL],MIC ([2]; CRE strain No. 100186) [µg/mL],MIC ([2]; CRE strain No. 110502) [µg/mL],MIC ([2]; CRE strain No. 110525) [µg/mL],MIC ([2]; CRE strain No. 311277) [µg/mL],MIC ([3]; CRPA strain No. 100110) [µg/mL],MIC ([3]; CRPA strain No. 110163) [µg/mL],MIC ([3]; CRPA strain No. 110224) [µg/mL],MIC ([3]; CRPA strain No. 110358) [µg/mL],MIC ([3]; CRPA strain No. 110390) [µg/mL],further results
CC(C)(O/N=C(\C(=O)N[C@@H]1C(=O)N2C(C(=O)[O-])=C(C[N+]3(CCCC[C@H](N)C(=O)O)CCCC3)CSC12)c1csc(N)n1)C(=O)O (stereo partly shown) [Compound 1],,,,,,> 32,> 32,> 32,> 32,> 32,> 32,> 32,> 32,> 32,> 32,16,> 32,32,> 32,> 32,
CON(CC[N+]1(CC2=C(C(=O)O)N3C(=O)[C@@H](NC(=O)/C(=N\OC(C)(C)C(=O)O)c4csc(N)n4)[C@H]3SC2)CCCC1)C(=O)c1ccc(O)c(O)c1Cl [Compound 3],,,,,,3,6,4,4,1,3,6,> 32,16,8,0.562,1,1,2,2,
CC(C)(O/N=C(\C(=O)N[C@@H]1C(=O)N2C(C(=O)O)=C(C[N+]3(CCNC(=S)Nc4ccc(O)c(O)c4Cl)CCCC3)CS[C@H]12)c1csc(N)n1)C(=O)O [Compound 4],,,,,,> 32,> 32,> 32,> 32,> 32,> 32,> 32,> 32,> 32,> 32,16,> 32,> 32,> 32,> 32,
CC(=O)N(O)CC[N+]1(CC2=C(C(=O)O)N3C(=O)[C@@H](NC(=O)/C(=N\OC(C)(C)C(=O)O)c4csc(N)n4)[C@H]3SC2)CCCC1 [Compound 5],> 32,> 32,> 32,> 32,> 32,,,,,,,,,,,,,,,,"MIC [5]: > 32 µg/mL; MIC [6, 14]: > 32 µg/mL; MIC ([6]; FDA-CDC AR-BANK #0441 (KPC-2)): > 32 µg/mL; MIC [6, 15]: > 32 µg/mL; MIC [6, 16]: > 32 µg/mL; MIC [7, 17]: > 32 µg/mL; MIC [7, 18]: > 32 µg/mL; MIC [7, 19]: > 32 µg/mL; MIC [7, 20]: > 32 µg/mL; MIC [7, 21]: > 32 µg/mL; MIC [8]: > 32 µg/mL"
CC(C)(O/N=C(\C(=O)N[C@@H]1C(=O)N2C(C(=O)O)=C(C[N+]3(CCN(O)C(=O)c4ccc(O)c(O)c4Cl)CCCC3)CS[C@H]12)c1csc(N)n1)C(=O)O [Compound 6],,,,,,3,6,4,3,1,2,1.5,32,4,8,0.063,0.5,0.625,4,2,

# Continued, in another order:
"MIC [4, 9] [µg/mL]","MIC [4, 10] [µg/mL]","MIC [4, 11] [µg/mL]","MIC [4, 12] [µg/mL]","MIC [4, 13] [µg/mL]",SMILES,MIC ([1]; CRAB strain No. 100085) [µg/mL],MIC ([1]; CRAB strain No. 100333) [µg/mL],MIC ([1]; CRAB strain No. 110440) [µg/mL],MIC ([1]; CRAB strain No. 110477) [µg/mL],MIC ([1]; CRAB strain No. 110517) [µg/mL],MIC ([2]; CRE strain No. 100109) [µg/mL],MIC ([2]; CRE strain No. 100186) [µg/mL],MIC ([2]; CRE strain No. 110502) [µg/mL],MIC ([2]; CRE strain No. 110525) [µg/mL],MIC ([2]; CRE strain No. 311277) [µg/mL],MIC ([3]; CRPA strain No. 100110) [µg/mL],MIC ([3]; CRPA strain No. 110163) [µg/mL],MIC ([3]; CRPA strain No. 110224) [µg/mL],MIC ([3]; CRPA strain No. 110358) [µg/mL],MIC ([3]; CRPA strain No. 110390) [µg/mL],further results
2,0.25,> 32,0.125,4,CC(C)(O/N=C(\C(=O)N[C@@H]1C(=O)N2C(C(=O)O)=C(C[N+]3(CCNC(=S)c4ccc(O)c(O)c4Cl)CCCC3)CS[C@H]12)c1csc(N)n1)C(=O)O [Compound 7],,,,,,,,,,,,,,,,"MIC [5]: 0.125 µg/mL; MIC [6, 14]: 8 µg/mL; MIC ([6]; FDA-CDC AR-BANK #0441 (KPC-2)): 8 µg/mL; MIC [6, 15]: 32 µg/mL; MIC [6, 16]: 1 µg/mL; MIC [7, 17]: 1 µg/mL; MIC [7, 18]: 1 µg/mL; MIC [7, 19]: 0.5 µg/mL; MIC [7, 20]: 2 µg/mL; MIC [7, 21]: 4 µg/mL; MIC [8]: 0.125 µg/mL"
0.25,0.0625,8,0.125,2,CC(C)(O/N=C(\C(=O)N[C@@H]1C(=O)N2C(C(=O)O)=C(C[N+]3(CCNC(=O)c4ccc5cc(O)c(O)cc5c4)CCCC3)CS[C@H]12)c1csc(N)n1)C(=O)O [Compound 8],,,,,,,,,,,,,,,,"MIC [5]: 0.25 µg/mL; MIC [6, 14]: 1 µg/mL; MIC ([6]; FDA-CDC AR-BANK #0441 (KPC-2)): 4 µg/mL; MIC [6, 15]: 4 µg/mL; MIC [6, 16]: 0.25 µg/mL; MIC [7, 17]: 2 µg/mL; MIC [7, 18]: 1 µg/mL; MIC [7, 19]: 0.25 µg/mL; MIC [7, 20]: 2 µg/mL; MIC [7, 21]: 2 µg/mL; MIC [8]: 0.25 µg/mL"
> 32,> 32,> 32,> 32,> 32,CC(C)(O/N=C(\C(=O)N[C@@H]1C(=O)N2C(C(=O)O)=C(C[N+]3(CCNC(=N)c4ccc(O)c(O)c4Cl)CCCC3)CS[C@H]12)c1csc(N)n1)C(=O)O [Compound 9],,,,,,,,,,,,,,,,"MIC [5]: 16 µg/mL; MIC [6, 14]: > 32 µg/mL; MIC ([6]; FDA-CDC AR-BANK #0441 (KPC-2)): > 32 µg/mL; MIC [6, 15]: > 32 µg/mL; MIC [6, 16]: > 32 µg/mL; MIC [7, 17]: > 32 µg/mL; MIC [7, 18]: 16 µg/mL; MIC [7, 19]: > 32 µg/mL; MIC [7, 20]: > 32 µg/mL; MIC [7, 21]: > 32 µg/mL; MIC [8]: > 32 µg/mL"

# — patent US20230121689A1, “CEPHALOSPORIN ANTIBACTERIAL COMPOUND AND PHARMACEUTICAL APPLICATION THEREOF” (priority 2020, published 2023)
